# Biological target: human CNR2 receptors (CB2 receptor) (Homo sapiens (Human), UniProt P34972)
# Assay: Radioligand binding assay, human CB2 (CNR2)
# Conditions: not given
# Experimental: Radioligand Binding Assay
# The affinity of the compounds of the invention for cannabinoid CB1 receptors was determined using recommended amounts of membrane preparations (PerkinElmer) of human embryonic kidney (HEK) cells expressing the human CNR1 or CNR2 receptors in conjunction with 1.5 or 2.6 nM [3H]-CP-55,940 (Perkin Elmer) as radioligand, respectively. Binding was performed in binding buffer (50 mM Tris, 5 mM MgCl2, 2.5 mM EDTA, and 0.5% (wt/vol) fatty acid free BSA, pH 7.4 for CB1 receptor and 50 mM Tris, 5 mM MgCl2, 2.5 mM EGTA, and 0.1% (wt/vol) fatty acid free BSA, pH 7.4 for CB2 receptor) in a total volume of 0.2 ml for 1 h at 30° C. shaking. The reaction was terminated by rapid filtration through microfiltration plates coated with 0.5% polyethylenimine (UniFilter GFB filter plate; Packard). Bound radioactivity was analyzed for Ki using nonlinear regression analysis (Activity Base, ID Business Solution, Limited), with the Kd values for [3H]CP55,940 determined from saturation experiments. The compounds of formula (I) show an excellent affinity for the CB2 receptor.
# The compounds according to formula (I) have an activity in the above assay (Ki) between 0.5 nM and 10 μM. Particular compounds of formula (I) have an activity in the above assay (Ki) between 0.5 nM and 3 μM. Other particular compounds of formula (I) have an activity in the above assay (Ki) between 0.5 nM and 100 nM.
# Chain of human CNR2 receptors (CB2 receptor) (P34972 whole entry): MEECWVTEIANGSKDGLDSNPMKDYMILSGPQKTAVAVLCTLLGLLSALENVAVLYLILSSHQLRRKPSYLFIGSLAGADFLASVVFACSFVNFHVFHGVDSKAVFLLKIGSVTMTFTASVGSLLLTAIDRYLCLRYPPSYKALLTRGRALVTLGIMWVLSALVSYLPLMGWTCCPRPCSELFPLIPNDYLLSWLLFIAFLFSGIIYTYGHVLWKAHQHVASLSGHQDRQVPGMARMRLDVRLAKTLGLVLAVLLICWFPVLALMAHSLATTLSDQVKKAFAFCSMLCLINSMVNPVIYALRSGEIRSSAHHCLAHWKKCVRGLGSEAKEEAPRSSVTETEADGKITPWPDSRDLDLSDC
row,Compound,Ki
1,"CCC(CC)(NC(=O)c1ccc(N2CC(O)C2)c(OC[C@H]2C[C@@H]2COCc2ccccc2)n1)C(=O)OCCCF (racemic) [Example 22, (Rac)-trans-3-Fluoropropyl 2-[[6-[[-2-(benzyloxymethyl)cyclopropyl]methoxy]-5-(3-hydroxyazetidin-1-yl)pyridine-2-carbonyl]amino]-2-ethyl-butanoate]",0.755 µM
2,"CCC(CC)(NC(=O)c1ccc(N2CC(OS(=O)(=O)c3ccc(C)cc3)C2)c(OC[C@H]2C[C@@H]2CO)n1)C(=O)OCCCF (racemic) [Example 31, (Rac)-trans-3-fluoropropyl 2-ethyl-2-[[6-[[-2-(hydroxymethyl)cyclopropyl]methoxy]-5-[3-(p-tolylsulfonyloxy)azetidin-1-yl]pyridine-2-carbonyl]amino]butanoate]",0.0117 µM

# Same assay, conditions: membranes of HEK cells expressing human CNR2, 2.6 nM [3H]-CP-55,940 radioligand; read-out: Binding assay human CB2 Ki
row,Compound,Ki
1,"CCOC(=O)C(CC)(CC)NC(=O)c1ccc(N2CC(OC)C2)c(OC[C@H]2C[C@@H]2CF)n1 (mixture of isomers) [Example 3, Ethyl 2-ethyl-2-{[6-{[(1S,2S)-2-(fluoromethyl)cyclopropyl]methoxy}-5-(3-methoxyazetidin-1-yl)pyridine-2-carbonyl]amino}butanoate and ethyl 2-ethyl-2-{[6-{[(1R,R)-2-(fluoromethyl)cyclopropyl]methoxy}-5-(3-methoxyazetidin-1-yl)pyridine-2-carbonyl]amino}butanoate]",0.0005 µM
2,"CCOC(=O)C(CC)(CC)NC(=O)c1ccc(N2CC(OC)C2)c(OC[C@@H]2C[C@@H]2CF)n1 (mixture of isomers) [Example 4, Ethyl 2-ethyl-2-{[6-{[(1R,2S)-2-(fluoromethyl)cyclopropyl]methoxy}-5-(3-methoxyazetidin-1-yl)pyridine-2-carbonyl]amino}butanoate and ethyl 2-ethyl-2-{[6-{[(1S,2R)-2-(fluoromethyl)cyclopropyl]methoxy}-5-(3-methoxyazetidin-1-yl)pyridine-2-carbonyl]amino}butanoate]",0.0007 µM

# Further lines, results first:
row,Ki,Compound
1,0.0046 µM,"CCOC(=O)C(CC)(CC)NC(=O)c1ccc(N2CC(OC)C2)c(OC[C@@H]2C[C@@H]2COCF)n1 (mixture of isomers) [Example 5, Ethyl 2-ethyl-2-{[6-({(1R,2S)-2-[(fluoromethoxy)methyl]cyclopropyl}methoxy)-5-(3-methoxyazetidin-1-yl)pyridine-2-carbonyl]amino}butanoate and ethyl 2-ethyl-2-{[6-({(1S,2R)-2-[(fluoromethoxy)methyl]cyclopropyl}methoxy)-5-(3-methoxyazetidin-1-yl)pyridine-2-carbonyl]amino}butanoate]"
2,0.013 µM,"CCOC(=O)C(CC)(CC)NC(=O)c1ccc(N2CC(OC)C2)c(OC[C@@H]2C[C@@H]2COCCF)n1 (mixture of isomers) [Example 6, Ethyl 2-ethyl-2-{[6-({(1R,2S)-2-[(2-fluoroethoxy)methyl]cyclopropyl}methoxy)-5-(3-methoxyazetidin-1-yl)pyridine-2-carbonyl]amino}butanoate and ethyl 2-ethyl-2-{[6-({(1S,2R)-2-[(2-fluoroethoxy)methyl]cyclopropyl}methoxy)-5-(3-methoxyazetidin-1-yl)pyridine-2-carbonyl]amino}butanoate]"
3,4.15 µM,"CCC(CC)(NC(=O)c1ccc(N2CC(F)C2)c(OC[C@@H]2C[C@H]2CO)n1)C(=O)N[C@H](CO)CC(C)C (single isomer, unassigned) [Example 27, N-[1-Ethyl-1-[[(1S)-1-(hydroxymethyl)-3-methyl-butyl]carbamoyl]propyl]-5-(3-fluoroazetidin-1-yl)-6-[[(1R,2R)-2-(hydroxymethyl)cyclopropyl]methoxy]pyridine-2-carboxamide or N-[1-ethyl-1-[[(1S)-1-(hydroxymethyl)-3-methyl-butyl]carbamoyl]propyl]-5-(3-fluoroazetidin-1-yl)-6-[[(1S,2S)-2-(hydroxymethyl)cyclopropyl]methoxy]pyridine-2-carboxamide]"

# Reference: patent publication US11655243B2, “Pyridine and pyrazine derivatives as preferential cannabinoid 2 agonists” (HOFFMANN-LA ROCHE INC., priority 2018, dated 2023)
